The record followed here is US8455495B2, “Pyridazino-pyridinone compounds and methods of use” (Amgen Inc., priority 2008, dated 2013).

Assay [1] has as its system LPS-induced TNF-α production. Description: Inhibition of LPS-induced TNF-α production in rats. The conditions noted are these: Rattus norvegicus, read-out: ED50, inhibition of LPS-induced TNF-α production. In kind it is in vivo. As to the method: Inhibition of LPS-Induced TNF-α Production Rats
LPS was diluted in PBS (100 μg per rat). Rats (n=6) were pretreated with vehicle or compound (0.03, 0.1, 0.3 and 1.0 mg/kg, PO) 60 minutes prior to the injection of LPS (100 μg per rat/IV, tail vein). Blood was harvested via decapitation 90 minutes following the administration of LPS. Blood was centrifuged at 12,000 rpm for 12 minutes to obtain plasma. Plasma samples were stored at −80 C. TNF-α levels were determined by ELISA for treatment groups that received LPS. Rat TNF-α levels were analyzed using rat TNF-α CytoSet kit from Biosource International. ELISA was completed according to the manufacturer's instructions. The concentration of TNF-α was interpolated from absorbance using the standard curve generated. For each individual sample, the TNF value from the dilution series that fell in the most linear portion of the standard curve was chosen and used for data analysis. The limit of quantitation of the ELISA was 1,000 pg/mL.

In assay [2] the test system is production of IL-1β, IL-6, and TNF-α by PBMC activated with LPS. Description: Lipopolysaccharide-activated PBMC cytokine production assay. In kind it is cell-based. The conditions noted are these: Homo sapiens, read-out: IC50 in PBMC cytokine production assay. As to the method: Lipopolysaccharide-Activated Pbmc Cytokine Production Assay
Test compounds were evaluated in vitro for the ability to inhibit the production of IL-1β, IL-6, and TNF-α by PBMC activated with bacterial lipopolysaccharide (LPS). Fresh leukocytes were obtained from a local blood bank, and peripheral blood mononuclear cells (PBMCs) were isolated by density gradient centrifugation on Ficol-Paque Plus (Pharmacia).
Preparation of Test Compound Stock Solutions
All reagents were prepared in RPMI 1640+10% v/v human AB serum+1× Pens/Strep/Glu (assay medium). Test compounds were dissolved in 100% DMSO and serially diluted in 96-well polypropylene round bottom micro titer plates (drug plate). Serial dilutions were then diluted 1:250 into assay medium to a 4× working concentration. Compound serial dilutions were half-log, 10 point titrations with a final starting concentration of 1 μM.
Treatment of Cells with Test Compounds and Activation with Lipopolysaccharide
LPS was prepared to a 4× concentration in assay medium. 100 μl of PBMC (1×10^6 cells/ml) were plated in a 96-well polystyrene flat bottom micro titer tissue culture plate and incubated with 50 μl of 4× compound serial dilution for 1 hour at 37° C., 5% CO2 in a tissue culture incubator. 50 μl 4×LPS or control was added and the plates were incubated at 37° C., 5% CO2 in a tissue culture incubator for 18 hours. The final DMSO concentration was 0.1%. The total volume was 200 μL. The final LPS concentration was 100 ng/mL. After 18 hours culture supernatants were removed and IL-1β, IL-6, and TNF-α presence in the supernatants was quantified using MSD ECL based technology.
20 μL of culture supernatant were added to MSD plates, and incubated for one hour at room temperature. 20 μL of detection antibody diluted in antibody diluent (1 μg/mL), and 110 μL of 2× Read Buffer P was added, and incubated for one hour at RT. Electrochemiluminescence was measured using the SECTOR HTS Imager (MSD, Gaithersburg, Md.).
Compound IC50 values were calculated as follows: The proportion of cytokine production in the presence of compound compared to the cytokine production in the presence of the DMSO vehicle alone (Hi control) was calculated using the formula: Percent Control (POC)=(compound−average Lo)/(average Hi−average Lo)*100.

For assay [3], the system named is collagen-induced arthritis. Description: Collagen-induced arthritis (CIA) model in rats. In kind it is in vivo. The conditions noted are these: Rattus norvegicus, 168 h, read-out: ED50 in rat CIA model. As to the method:
Collagen-induced Arthritis (CIA) Model in Rats
Porcine type II collagen (10 mg) was dissolved in 0.1N acetic acid (5 mL) two days prior to use on a rotating plate in the refrigerator. Subsequently, collagen was emulsified 1:1 with Freund's incomplete adjuvant using an emulsification needle and glass syringes yielding a final concentration of 1 mg/mL.
Disease was induced in each animal by intradermal injection of emulsified collagen in IFA at 10 different sites (100 μL per site) over the back. The clinical onset of arthritis varied between days 10 to 12 as indicated by hind paw swelling and ambulatory difficulties. At onset (defined as Day 0), rats were randomized to treatment groups and therapy was initiated with drug or vehicle control as noted in table above. Rats were treated for 7 days and were sacrificed on Day 8.

A further assay deals with recombinant human p38α (Homo sapiens, UniProt Q16539). Description: Purified and activated recombinant human p38α HTRF assay. Format: biochemical. The conditions noted are these: 1 nM p38α, 50 μM ATP, GST-ATF2 substrate, read-out: p38a IC50. The protocol: Purified and Activated Recombinant Human p38α Assay Kinase Reaction Buffer: […] HTRF Detection Buffer: […] Serial Dilution of Compounds: […] Columns 6 and 12 (HI controls and LO controls respectively) in the drug plate were reserved as controls and contained only DMSO. Kinase Reaction: […] See table below for actual concentrations. In the absence of substrate, the background was measured as LO control. […] Assay Reagent Concentrations: […] HTRF Detection: […] After 60 minutes incubation at room temperature, the assay plate was read in a Discovery Plate Reader. The wells were excited with coherent 320 nm light and the ratio of delayed ([…] post excitation) emissions at […] (native europium fluorescence) and 665 nm (europium fluorescence transferred to allophycocyanin-an index of substrate phosphorylation) was determined (Park et al, 1999). Data Analysis: […] Data (consisting of POC and inhibitor concentration in μM) was fitted to a 4-parameter equation ([…]))), where A is the minimum y (POC) value, B is the maximum y (POC), C is the x (compound concentration) at the point of inflection and D is the slope factor, using a Levenburg-Marquardt non-linear regression algorithm. The inhibition constant (Ki) of the inhibitor was estimated from the IC50 (compound concentration at the point of inflection C) using the Cheng-Prussof equation: […] All results were expressed as the mean±the standard error of the mean. Data acquisition and non-linear regression algorithms were performed using Activity Base v5.2 and XL-fit software v4.1 respectively. All data was archived using Activity Base v5.2 software.
recombinant human p38α, sequence (Q16539 whole entry): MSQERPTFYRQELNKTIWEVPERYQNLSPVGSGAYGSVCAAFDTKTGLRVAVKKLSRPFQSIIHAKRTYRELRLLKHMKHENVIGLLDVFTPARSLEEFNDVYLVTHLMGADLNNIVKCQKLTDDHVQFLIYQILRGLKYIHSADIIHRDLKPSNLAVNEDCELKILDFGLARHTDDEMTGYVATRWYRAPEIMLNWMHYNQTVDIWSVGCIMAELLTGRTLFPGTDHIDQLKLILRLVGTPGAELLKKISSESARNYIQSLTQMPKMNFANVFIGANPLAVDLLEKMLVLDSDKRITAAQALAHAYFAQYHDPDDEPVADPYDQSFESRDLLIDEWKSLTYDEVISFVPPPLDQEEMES

The test system of assay [4] is TNF-α production by LPS-activated THP1 cells. Description: Lipopolysaccharide-activated THP1 cell TNF production assay. In kind it is cell-based. The conditions noted are these: Homo sapiens, read-out: IC50 in THP-1 cellular TNF production assay. As to the method: Lipopolysaccharide-Activated THP1 Cell TNF Production Assay
THP1 cells were resuspended in fresh THP1 media (RPMI 1640, 10% heat-inactivated FBS, 1×PGS, 1×NEAA, plus 30 μM βME) at a concentration of 1.5×10^6 cells per mL. One hundred microliters of cells per well were plated in a polystyrene 96-well tissue culture plate. 1.5 micrograms per mL of bacterial LPS was prepared in THP1 media and transferred to the first 11 columns of a 96-well polypropylene plate. Column 12 contained only THP1 media for the LO control. Compounds were dissolved in 100% DMSO and serially diluted 3 fold in a polypropylene 96-well microtiter plate (drug plate). Columns 6 and 12 were reserved as controls (HI controls and LO controls respectively) and contained only DMSO. 10 μL of LPS followed by one microliter of inhibitor compound from the drug plate was transferred to the cell plate. The treated cells were induced to synthesize and secrete TNF-α in a 37° C. humidified incubator with 5% CO2 for 3 hours. Fifty microliters of conditioned media was transferred to a 96-well MULTI-ARRAY™ 96-well small spot plate—custom coated with MAB610 containing 100 μL of 2× Read Buffer P supplemented with 0.34 nM AF210NA polyclonal Ab labeled with ruthenium (MSD—Sulfo-TAG™—NHS ester). After an overnight incubation at room temperature with shaking, the reaction was read on the Sector Imager™ 6000. […] The amount of secreted TNF-α in the presence of test compounds compared with that in the presence of DMSO vehicle alone (HI control) was calculated using the formula: % control (POC)=(cpd−average LO)/(average HI−averageLO)*100. Data (consisting of POC and inhibitor concentration in μM) was fitted to a 4-parameter equation (y=A+((B−A)/(1+((x/C)^D))), where A is the minimum y (POC) value, B is the maximum y (POC), C is the x (cpd concentration) at the point of inflection and D is the slope factor) using a Levenburg-Marquardt non-linear regression algorithm.

For assay [5], the system named is TNF-α induced IL-8 in 50% human whole blood. Description: Inhibition of TNF-α induced IL-8 in 50% human whole blood. The conditions noted are these: TNF-α (1 nM) induced IL-8, 50% human whole blood, 16-18 h, read-out: WB TNF/IL8 IC50. Format: cell-based. As to the method:
Inhibition of TNF-α Induced IL-8 in 50% Human Whole Blood
Test compounds were evaluated in vitro for the ability to inhibit the production of secreted IL-8 by whole blood activated with TNF-α. Fresh human whole blood was obtained from healthy, non-medicated volunteers in sodium heparin tubes.
Compound Dilution—Assay Procedure
Test compounds are serially diluted 1:3 in DMSO and then diluted 1:250 into R10 (RPMI 1640, 10% human serum AB, 1× pen/strep/glutamine) to the 4× working concentration to be used in the assay. 100 ul heparinized whole blood is plated into wells of 96 well flat bottom plates. 50 ul of either 4× compound or DMSO control (Final DMSO concentration is 0.1%) are added to the appropriate wells. Plates are incubated for 1 hour at 37 degrees Celsius. 50 ul of 4×TNF-α (4 nM TNF-α, for a final concentration of 1 nM) or control (media alone) is added to the appropriate wells (Total volume=200 ul). Plates are incubated overnight (16-18 hours). 100 ul of supernatant is collected and stored in 96-well round bottom polypropylene plates at −80 degrees Celsius or assayed immediately for IL-8.
Cytokines are measured on antibody (Ab) sandwich ECL based 96-well detection plates. 20 ul of supernatant are added to plate and plate is sealed and shaken at RT for 1 hour. 130 ul of detection Ab cocktail is added and plates are sealed and shaken for 1 hour in the dark at RT. Plates are read on MSD Sector HTS instrument. Data are analyzed and IC50 values generated using Activity Base and X1-fit programs.

The mark [6] stands for this setting: THP-1, THP1 cells, LPS, 3 hours.

Where two headings read alike, the source gives them in different places.

As a reminder, the ED50 is the midpoint of the dose-response relation. `Cc1ccc(C(=O)NC2CC2)cc1-c1cc2cnnc(-c3ccc(F)cc3F)c2n(C)c1=O` [Example 1, N-cyclopropyl-3-(8-(2,4-difluorophenyl)-1-methyl-2-oxo-1,2-dihydropyrido[3,2-d]pyridazin-3-yl)-4-methylbenzamide]: the 50% effective dose (ED50) in assay [1] came to 0.06 mg/kg; in assay [3], 0.03 mg/kg. The IC50 in assay [2] (18 h) is no more than 1000 nM; on recombinant human p38α, 2.3 nM; in assay [4] (THP-1, 3 h) it was no more than 1000 nM.

`Cc1c(F)cc(C(=O)NC2CC2)cc1-c1cc2cnnc(-c3ccc(F)cc3F)c2n(C)c1=O` [Example 3, N-cyclopropyl-3-(8-(2,4-difluorophenyl)-1-methyl-2-oxo-1,2-dihydropyrido[3,2-d]pyridazin-3-yl)-5-fluoro-4-methylbenzamide]: the ED50 in assay [1] amounted to 0.04 mg/kg. The IC50 in assay [2] (18 h) was no more than 1000 nM; at recombinant human p38α, 1.7 nM; in assay [4] (THP-1, 3 h), no more than 1000 nM.

Turning to `Cc1ccc(C(=O)Nc2ccnn2C)cc1-c1cc2cnnc(-c3ccc(F)cc3F)c2n(C)c1=O` [Example 15, 3-(8-(2,4-difluorophenyl)-1-methyl-2-oxo-1,2-dihydropyrido[2,3-d]pyridazin-3-yl)-4-methyl-N-(1-methyl-1H-pyrazol-5-yl)benzamide], the IC50 is 4.1 nM in assay [5]; no more than 1000 nM in assay [2] (LPS 100 ng/mL, 18 hours); 7.5 nM on recombinant human p38α; no more than 1000 nM in assay [4] (setting [6]).

Turning to `Cc1ccc(C(=O)NC2CC2)cc1-c1cc2cnnc(-c3cc(F)ccc3Cl)c2n(C)c1=O` [Example 18, 3-(8-(2-chloro-5-fluorophenyl)-1-methyl-2-oxo-1,2-dihydropyrido[2,3-d]pyridazin-3-yl)-N-cyclopropyl-4-methylbenzamide], the IC50 in assay [5] is 2.2 nM; in assay [2] (LPS 100 ng/mL, 18 hours), no more than 1000 nM; at recombinant human p38α, 1.7 nM; in assay [4] (setting [6]) it was no more than 1000 nM.

Take `Cc1ccc(C(=O)NC2(C)CC2)cc1-c1cc2cnnc(-c3ccc(F)cc3Cl)c2n(C)c1=O` [Example 20, 3-(8-(2-chloro-4-fluorophenyl)-1-methyl-2-oxo-1,2-dihydropyrido[2,3-d]pyridazin-3-yl)-4-methyl-N-(1-methylcyclopropyl)benzamide]: the IC50 in assay [5] was 15.6 nM; in assay [2] (LPS 100 ng/mL, 18 hours) it was no more than 1000 nM; on recombinant human p38α, 4.1 nM; in assay [4] (setting [6]), no more than 1000 nM.

Regarding `Cc1ccc(C(=O)Nc2nccs2)cc1-c1cc2cnnc(-c3ccc(F)cc3Cl)c2n(C)c1=O` [Example 24, 3-(8-(2-chloro-4-fluorophenyl)-1-methyl-2-oxo-1,2-dihydropyrido[2,3-d]pyridazin-3-yl)-4-methyl-N-1,3-thiazol-2-ylbenzamide], the IC50 in assay [5] is 9.3 nM; in assay [2] (LPS 100 ng/mL, 18 hours) it was no more than 1000 nM; on recombinant human p38α, 1 nM; in assay [4] (setting [6]) it was no more than 1000 nM.
